Consider 31 molecules from ChEMBL document CHEMBL4619753, “Treating Cancer by Spindle Assembly Checkpoint Abrogation: Discovery of Two Clinical Candidates, BAY 1161909 and BAY 1217389, Targeting MPS1 Kinase” (J Med Chem, 2020).

Where only a bound is given, the exact number is not on record here.

Series [1] in a line: Dose normalized AUC in Wistar rat at 0.2 to 1 mg/kg, po measured up to 24 hrs by HPLC-MS-MS analysis. In kind it is ADME, organism-based. The following applies: in vivo.
Series [2] is described as follows: Half life in Wistar rat at 0.1 to 0.5 mg/kg, iv administered as bolus dose measured up to 24 hrs by HPLC-MS-MS analysis. Conditions: in vivo; for half-life: Wistar. Type of series: ADME, organism-based.
Series [3] is described as follows: Oral bioavailability in Wistar rat at 0.2 to 1 mg/kg measured up to 24 hrs by HPLC-MS-MS analysis. Conditions: in vivo. Type of series: ADME, organism-based.
A short description of series [4]: Volume of distribution at steady state in Wistar rat at 0.1 to 0.5 mg/kg, iv administered as bolus dose measured up to 24 hrs by HPLC-MS-MS analysis. Type of series: ADME, organism-based. Conditions: in vivo; for Vd: Wistar, read-out: Vdss.
The test system of another series is HeLa. Kind of series: cells. The following applies: Homo sapiens, 96 h.
A short description of series [5]: Volume of distribution at steady state in Beagle dog at 0.1 to 0.5 mg/kg administered as iv infusion measured up to 24 hrs by HPLC-MS-MS analysis. Conditions: in vivo, read-out: Vdss. In kind it is ADME, organism-based, Canis lupus familiaris.
Series [6] can be described thus: Dose normalized AUC in Beagle dog at 0.2 to 1 mg/kg, po measured up to 24 hrs by HPLC-MS-MS analysis. Type of series: ADME, organism-based, Canis lupus familiaris. Conditions: in vivo.
Series [7] in a line: Blood clearance in Beagle dog at 0.1 to 0.5 mg/kg administered as iv infusion measured up to 24 hrs by HPLC-MS-MS analysis. In kind it is ADME, organism-based, Canis lupus familiaris.
Series [8] can be described thus: Half life in Beagle dog at 0.1 to 0.5 mg/kg, administered as iv infusion measured up to 24 hrs by HPLC-MS-MS analysis. In kind it is ADME, organism-based, Canis lupus familiaris. Conditions: in vivo.
Series [9] is described as follows: Oral bioavailability in Beagle dog at 0.2 to 1 mg/kg measured up to 24 hrs by HPLC-MS-MS analysis. Type of series: ADME, organism-based, Canis lupus familiaris. Conditions: in vivo.
A short description of series [10]: Blood clearance in Wistar rat at 0.1 to 0.5 mg/kg, iv administered as bolus dose measured up to 24 hrs by HPLC-MS-MS analysis. In kind it is ADME, organism-based.
Series [11] can be described thus: Aqueous solubility of the compound. In kind it is physicochemical. Conditions: buffer.
Series [12] is described as follows: Lipophilicity, LogD of compound at pH 7.5 by reverse phase HPLC analysis. Conditions: buffer. In kind it is physicochemical.
For a further series, the system named is HT-29. Kind of series: cells. The following applies: Homo sapiens, HT-29, 96 h.

Description for HT-29: Antiproliferative activity against human HT-29 cells after 96 hrs by crystal violet staining based assay
Description for HeLa: Antiproliferative activity against human HeLa cells after 96 hrs by crystal violet staining based assay

Consider `COc1cc(N2CCOC2=O)ccc1Nc1nc2ccc(-c3ccc(NC(=O)[C@H](C)c4ccc(F)cc4)cc3)cn2n1`, for which the AUC/dose in series [1] was determined as 4.2 kg·h/L. The t1/2 in series [2] (24 h) stood at 8 h. For the same molecule, the bioavailability in series [3] turned out to be 49%. Also, in series [4] (24 h), the Vdss amounted to 1.4 L/kg. For the same molecule, inhibition in the series on HeLa was half-maximal at 270 nM (IC50).
In [1], `COc1cc(S(C)(=O)=O)ccc1Nc1nc2ccc(-c3ccc(NC(=O)Cc4ccc(F)cc4)cc3)cn2n1` registered an AUC/dose of 0.98 kg·h/L. This molecule also gave a bioavailability in series [3] of 49%. The molecule also had an IC50 with HeLa of 246 nM.
With `COc1cc(S(C)(=O)=O)ccc1Nc1nc2ccc(-c3ccc(NC(=O)C4(c5ccc(F)cc5)CC4)cc3)cn2n1`, the IC50 with HeLa is over 10000 nM.
Consider `C=C(c1ccc(OC)c(F)c1)c1cc(NCCC(F)(F)F)c2ncc(-c3ccc(C(=O)NC4CC4)c(C)c3)n2n1`, for which the AUC/dose came out at 0.47 kg·h/L in series [1] and 0.005 kg·h/L in series [6]. The half-life in series [2] was 3.1 h; in series [8], 0.84 h. Moreover, the values for the Vd in series [5] and in series [4] were 2.6 L/kg and 2.1 L/kg, respectively. The bioavailability was found to be 33% in series [3] and 1.4% in series [9]. The clearance in [7] was 56.7 mL/min/kg; in [10] it was 14.5 mL/min/kg.
`Cc1cc(-c2cnc3c(NCC(C)C)nccn23)ccc1C(=O)NC1CC1` gave an AUC/dose in [1] of 0.22 kg·h/L. This molecule registered a bioavailability in series [3] of 20%.
Molecule `COc1cc(C(=O)N2C[C@@H]3C[C@H]2CO3)ccc1Nc1nc2ccc(-c3ccc(NC(=O)Cc4ccc(F)cc4)cc3)cn2n1` returned an AUC/dose in [1] of 0.23 kg·h/L. Further, the bioavailability in series [3] came out at 17%. Besides, the IC50 in the series with HeLa was found to be 50 nM.
Turning to `O=C(Cc1ccc(F)cc1)Nc1ccc(-c2ccc3nc(Nc4ccc(C(=O)N5CCOCC5)cc4OCC(F)(F)F)nn3c2)cc1`, the solubility result in series [11] is reported as “Insoluble”. This molecule also displayed a chromatographic logD in series [12] of 3.9. Further, the IC50 with HeLa is 26 nM.
Consider `COc1cc(C(=O)N2CC(F)C2)ccc1Nc1nc2ccc(-c3ccc(NC(=O)[C@H](C)c4ccc(F)cc4)cc3)cn2n1`, for which the AUC/dose in series [1] stood at 1.8 kg·h/L; in series [6] it was 0.64 kg·h/L. In addition, the half-life was 5.3 h in series [2] and 7 h in series [8]. The Vd is 5.2 L/kg in series [5] and 2.1 L/kg in series [4]. Further, the bioavailability in [3] was determined as 55%; in series [9], 39%. In addition, the clearance is 9.83 mL/min/kg in [7] and 5.17 mL/min/kg in series [10]. Moreover, in the series on HeLa, the IC50 is 57 nM.
As to `COc1ccccc1Nc1nc2ccc(-c3cc(C)c(O)c(C)c3)cn2n1`, in the series on HeLa, the IC50 was found to be 5900 nM.
On to `COc1cc(S(C)(=O)=O)ccc1Nc1nc2ccc(-c3ccc(NC(=O)[C@H](C)c4ccc(F)cc4)cc3)cn2n1` [BAY-1161909], for which the AUC/dose in [1] was 3.3 kg·h/L; in series [6], 0.52 kg·h/L. Besides, the half-life is 14 h in series [2] and 6.3 h in [8]. In addition, the Vd was found to be 6.7 L/kg in [5] and 2.4 L/kg in [4]. Also, the bioavailability in series [3] came out at 49%; in series [9] it was 63%. The clearance is 23.3 mL/min/kg in series [7] and 3.17 mL/min/kg in series [10]. In the series on HeLa, this molecule returned an IC50 of 260 nM.
Molecule `COc1cc(S(C)(=O)=O)ccc1Nc1nc2ccc(-c3ccc(NC(=O)[C@@H](C)c4ccc(F)cc4)cc3)cn2n1` showed an IC50 in the series on HeLa of 7000 nM.
In the case of `CNC(=O)Nc1ccc(-c2cnc3c(NCC(C)C)nccn23)cc1`, the AUC/dose in [1] stood at 4.9 kg·h/L. Further, in series [3], the bioavailability was 94%.
In series [1], `COc1cc(C(=O)N2CCOCC2)ccc1Nc1nc2ccc(-c3ccc(NC(=O)Cc4ccc(F)cc4)cc3)cn2n1` showed an AUC/dose of 0.81 kg·h/L. In series [3], this molecule came in with a bioavailability of 20%. In addition, 140 nM corresponded to half-maximal inhibition in the series with HeLa (IC50).
The molecule `CC(C)CNc1cccc2c1ncn2-c1ccc(C(=O)NC2CC2)cc1` came in with an IC50 with HeLa of over 10000 nM.
For the molecule `COc1cc(N2CCOC2=O)ccc1Nc1nc2ccc(-c3ccc(NC(=O)Cc4ccc(F)cc4)cc3)cn2n1`, the AUC/dose in series [1] was 1.9 kg·h/L. Also, the bioavailability in series [3] turned out to be 52%. In addition, in the series with HeLa, the IC50 is 120 nM.
For `COc1cc(C(=O)N2CC(F)C2)ccc1Nc1nc2ccc(-c3ccc(NC(=O)Cc4ccc(F)cc4)cc3)cn2n1`, half-maximal inhibition in the series with HeLa (IC50) was put at 37 nM.
In the series on HeLa, `CC(C)CNc1cc(-c2ccccc2)cc2c1ncn2-c1ccc(C(=O)NC2CC2)cc1` displayed an IC50 of 2480 nM.
Same read-out and setting: to `CC(C)CNc1nc(-c2ccccc2)nn2c(-c3ccc(C(=O)NC4CC4)cc3)cnc12` belongs over 10000 nM.
Regarding `COc1ccccc1Nc1nc2ccc(-c3ccc(NC(=O)Cc4ccccc4)cc3)cn2n1`, the AUC/dose in series [1] is 0.066 kg·h/L. Further, the bioavailability in series [3] turned out to be 9%. The same molecule returned an IC50 in the series with HeLa of 2300 nM.
The molecule `COc1cc(C(=O)N(C)C)ccc1Nc1nc2ccc(-c3ccc(NC(=O)Cc4ccc(F)cc4)cc3)cn2n1` showed an IC50 in the series on HeLa of 200 nM.
Turning to `COc1ccc(Oc2cc(NCCC(F)(F)F)c3ncc(-c4ccc(C(=O)NC5CC5)c(C)c4)n3n2)c(F)c1F` [BAY-1217389], the AUC/dose was determined as 2.4 kg·h/L in [1] and 2.5 kg·h/L in series [6]. Besides, the results for the half-life in series [2] and in series [8] were 7.8 h and 13 h, respectively. The Vd was determined as 3.9 L/kg in series [5] and 2.2 L/kg in series [4]. Besides, the results for the bioavailability in series [3] and in series [9] were 72% and 71%, respectively.
For the molecule `N#Cc1ccccc1Nc1nc2ccc(-c3ccc(NC(=O)Cc4ccc(F)cc4)cc3)cn2n1`, the AUC/dose in [1] is 0.066 kg·h/L. Also, in series [3], the bioavailability is 6.6%. In addition, 266 nM corresponded to half-maximal inhibition in the series with HeLa (IC50).
Molecule `CCC(C(=O)Nc1ccc(-c2ccc3nc(Nc4ccc(S(C)(=O)=O)cc4OC)nn3c2)cc1)c1ccc(F)cc1` (racemic) showed an IC50 in the series on HeLa of 7500 nM.
`CC(C)CNc1nccn2c(-c3ccc(C(=O)NC4CC4)cc3)cnc12`: the AUC/dose result in [1] (BLD = below limit of detection) was “Bld”.
`CC(C)CNc1cc(-c2ccccc2)nn2c(-c3ccc(C(=O)NC4CC4)cc3)cnc12`: the IC50 with HeLa stood at 1550 nM.
`O=C(Cc1ccc(F)cc1)Nc1ccc(-c2ccc3nc(Nc4ccc(C(=O)N5CCOCC5)cc4)nn3c2)cc1` gave an IC50 in the series on HeLa of 725 nM.
In series [1], `N#Cc1ccccc1Nc1nc2ccc(-c3ccc(NC(=O)Cc4ccccc4)cc3)cn2n1` gave an AUC/dose of 0.084 kg·h/L. The bioavailability in series [3] was 12%. In addition, the IC50 with HeLa came to 695 nM.
Consider `Cc1cc(-c2cnn3c(NC[C@H]4C[C@@](C)(O)C4)cc(Oc4cccnc4)nc23)ccc1C(=O)NC1CC1` [LUVIXASERTIB], for which 557 nM corresponded to half-maximal inhibition in the series on HT-29 (IC50).
In the case of `COc1cc(C(=O)N2CC3(COC3)C2)ccc1Nc1nc2ccc(-c3ccc(NC(=O)Cc4ccc(F)cc4)cc3)cn2n1`, the AUC/dose in series [1] came to 0.049 kg·h/L. Further, the IC50 in the series on HeLa was 85 nM.
`CC(C)CNc1nc(-c2ccccc2)cc2c(-c3ccc(C(=O)NC4CC4)cc3)cnn12` registered an IC50 with HeLa of 7730 nM.
`Cc1cc(-c2cnc3c(NCCC(F)(F)F)cc(C4(c5cc(F)ccc5O)CC4)nn23)ccc1C(=O)NC1CC1`: the figures for the AUC/dose in [1] and in series [6] were 0.76 kg·h/L and 1.1 kg·h/L, respectively. In addition, the half-life in series [2] was 4.7 h; in [8], 2.1 h. For the same molecule, the Vd is 2.1 L/kg in series [5] and 3.1 L/kg in series [4]. Besides, the bioavailability in series [3] was determined as 45%; in series [9], 81%. Moreover, the values for the clearance in series [7] and in series [10] were 21.7 mL/min/kg and 14.2 mL/min/kg, respectively.

As usually defined, the bioavailability is the share of a dose that reaches the circulation, judged against a reference dose that is usually intravenous. By Vdss is commonly meant the apparent volume that relates the amount in the body to the concentration in plasma or blood. A high value points to wide distribution into tissue. Broadly, the IC50 is the concentration needed to halve the response being measured. As usually defined, the half-life is how long it takes for the measured level to halve. Lower therefore signals rapid decline. In general, clearance refers to the rate of elimination divided by the concentration. Higher therefore signals a high capacity for elimination. One may read the chromatographic logD as a lipophilicity value derived from retention on a column. A lower chromatographic logD goes with lower lipophilicity.
